Results as given in patent publication US20240158393A1, “PYRIDONE COMPOUNDS AND METHODS OF USE” (Exelixis, Inc., priority 2021, published 2024).

Key:
Human Met = target: T1, Human Met (Homo sapiens, UniProt P08581); test: Human Met kinase assay (33P radiometric / HTRF KinEase); assay type: biochemical; conditions: protocols of Examples D-1 and/or D-2; read-out: c-Met IC50
T1 construct: Human MET (residues 956-1390)
Summary of the method: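 Two formats gave IC50s by curve fitting. HTRF KinEase used MET residues 956-1390 with 1 μM biotin-peptide and 3.0 μM ATP (Km) for 40 min at room temperature, ten doses in 3% DMSO, 665/620 nm read. The 33P transfer assay used mutant Met R974-S1390 A1209G/V1290L (3.4 nM), 10 μM ATP, 250 μM peptide, pH 7.0, 40 min, nine doses from 1 μM.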

Human KDR = target: T2, Human KDR (Homo sapiens, UniProt P35968); test: Human KDR kinase assay (33P radiometric / HTRF KinEase); assay type: biochemical; conditions: protocols of Examples B-1 and/or B-2
T2 construct: Human KDR (residues K790-V1356, 55 nM); purchased Eurofins Pharma Discovery Services UK Limited (KinaseProfiler, B-1) and/or CarnaBio (B-2)
T2 sequence (P35968 790-1356): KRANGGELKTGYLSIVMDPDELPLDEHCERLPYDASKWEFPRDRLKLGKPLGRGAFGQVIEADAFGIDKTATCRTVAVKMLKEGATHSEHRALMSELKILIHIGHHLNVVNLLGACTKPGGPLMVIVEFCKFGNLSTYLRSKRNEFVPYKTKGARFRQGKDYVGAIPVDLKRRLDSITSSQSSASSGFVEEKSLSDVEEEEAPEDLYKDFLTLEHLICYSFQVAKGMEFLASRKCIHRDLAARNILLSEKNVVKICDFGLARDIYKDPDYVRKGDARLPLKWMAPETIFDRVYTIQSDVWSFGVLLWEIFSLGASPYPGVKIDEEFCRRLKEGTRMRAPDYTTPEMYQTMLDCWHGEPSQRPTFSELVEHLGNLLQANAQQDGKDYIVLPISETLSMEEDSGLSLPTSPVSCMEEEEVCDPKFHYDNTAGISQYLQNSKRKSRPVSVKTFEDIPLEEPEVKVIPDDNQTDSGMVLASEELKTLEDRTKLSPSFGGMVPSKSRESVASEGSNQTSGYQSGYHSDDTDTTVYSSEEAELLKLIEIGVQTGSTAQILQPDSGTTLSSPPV
Summary of the method: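 Radiometric: KDR K790-V1356 (55 nM), MOPS pH 7.0, myelin basic protein, 10 μM [γ-33P]ATP, 40 min at room temperature, filter-bound 33P counted; nine half-log doses, top 1 μM. HTRF: KDR 790-1356, 1 μM biotinylated peptide, ATP at Km (4.0 μM), 40 min, 10 doses. IC50 from logistic fits.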

T1 sequence (P08581 974-1390 limits assumed): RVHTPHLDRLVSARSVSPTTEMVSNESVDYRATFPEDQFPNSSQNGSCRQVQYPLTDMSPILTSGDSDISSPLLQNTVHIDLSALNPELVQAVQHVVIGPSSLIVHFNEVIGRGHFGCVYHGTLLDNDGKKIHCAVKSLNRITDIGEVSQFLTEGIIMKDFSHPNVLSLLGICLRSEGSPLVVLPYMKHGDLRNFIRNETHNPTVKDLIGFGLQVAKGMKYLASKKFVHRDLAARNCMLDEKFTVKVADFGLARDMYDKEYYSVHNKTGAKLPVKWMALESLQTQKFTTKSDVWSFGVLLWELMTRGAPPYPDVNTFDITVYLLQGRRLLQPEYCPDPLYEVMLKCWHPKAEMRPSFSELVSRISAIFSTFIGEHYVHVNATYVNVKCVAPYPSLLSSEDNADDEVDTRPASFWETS

Row | SMILES | IC50 (Human Met) [nM] | IC50 (Human KDR) [nM]
1 | COc1cc2nccc(Oc3ccc(NC(=O)c4cnc(C)c(/C=C/CC(C)C)c4O)cc3F)c2cc1OC [Compound 29, N-[4-(6,7-Dimethoxyquinolin-4-yl)oxy-3-fluorophenyl]-4-hydroxy-6-methyl-5-[(E)-4-methylpent-1-enyl]pyridine-3-carboxamide] | ≤ 100 | ≤ 100
2 | COc1cc2nccc(Oc3cc(F)c(NC(=O)c4c(C)nc(C)c(C(C)C)c4O)cc3F)c2nc1OC [Compound 10, N-[4-[(6,7-Dimethoxy-1,5-naphthyridin-4-yl)oxy]-2,5-difluorophenyl]-4-hydroxy-2,6-dimethyl-5-propan-2-ylpyridine-3-carboxamide] | ≤ 100 | ≤ 100
3 | COCCOc1cc2nccc(Oc3ccc(NC(=O)c4cnc(C)c(/C=C/C(C)(C)C)c4O)cc3F)c2nc1OC [Compound 40, 5-[(E)-3,3-Dimethylbut-1-enyl]-N-[3-fluoro-4-[[6-methoxy-7-(2-methoxyethoxy)-1,5-naphthyridin-4-yl]oxy]phenyl]-4-hydroxy-6-methylpyridine-3-carboxamide] | ≤ 100 | ≤ 100
4 | COCCOc1cc2nccc(Oc3cc(F)c(NC(=O)c4c(C)nc(C)c(C(N)=O)c4O)cc3F)c2nc1OC [Compound 86, 3-N-[2,5-Difluoro-4-[[6-methoxy-7-(2-methoxyethoxy)-1,5-naphthyridin-4-yl]oxy]phenyl]-4-hydroxy-2,6-dimethylpyridine-3,5-dicarboxamide] | > 300 | > 300
5 | COc1cc2nccc(Oc3ccc(NC(=O)c4c(C)ccn(C(C)C)c4=O)cc3F)c2nc1OC [Compound 38, N-[4-[(6,7-Dimethoxy-1,5-naphthyridin-4-yl)oxy]-3-fluorophenyl]-4-methyl-2-oxo-1-propan-2-ylpyridine-3-carboxamide] | > 300 | 100 to 300
6 | COc1cc2nccc(Oc3ccc(NC(=O)c4cnc(C)c(/C=C/C(C)(C)C)c4O)cc3F)c2nc1OC [Compound 27, N-[4-[(6,7-Dimethoxy-1,5-naphthyridin-4-yl)oxy]-3-fluorophenyl]-5-[(E)-3,3-dimethylbut-1-enyl]-4-hydroxy-6-methylpyridine-3-carboxamide] | ≤ 100 | ≤ 100
7 | COc1cc2nccc(Oc3ccc(NC(=O)c4c(C)n(C)c(C)c(C#N)c4=O)cc3)c2nc1OC [Compound 82, 5-Cyano-N-[4-[(6,7-dimethoxy-1,5-naphthyridin-4-yl)oxy]phenyl]-1,2,6-trimethyl-4-oxopyridine-3-carboxamide] | > 300 | > 300
8 | COc1cc2nccc(Oc3ccc(NC(=O)c4c(C)nc(C)c(C(N)=O)c4O)cc3F)c2nc1OC [Compound 84, 3-N-[4-[(6,7-Dimethoxy-1,5-naphthyridin-4-yl)oxy]-3-fluorophenyl]-4-hydroxy-2,6-dimethylpyridine-3,5-dicarboxamide] | > 300 | > 300
9 | COc1ccc2nccc(Oc3ccc(NC(=O)c4cnc(C)c(C5=CCOCC5)c4O)cc3F)c2n1 [Compound 1-5, 5-(3,6-Dihydro-2H-pyran-4-yl)-N-[3-fluoro-4-[(6-methoxy-1,5-naphthyridin-4-yl)oxy]phenyl]-4-hydroxy-6-methylpyridine-3-carboxamide] | > 300 | ≤ 100
10 | COCCOc1cc2nccc(Oc3ccc(NC(=O)c4cnc(C)c(C5=CCCCC5)c4O)cc3F)c2nc1OC [Compound 34, 5-(Cyclohexen-1-yl)-N-[3-fluoro-4-[[6-methoxy-7-(2-methoxyethoxy)-1,5-naphthyridin-4-yl]oxy]phenyl]-4-hydroxy-6-methylpyridine-3-carboxamide] | ≤ 100 | ≤ 100
11 | COc1cc2nccc(Oc3ccc(NC(=O)c4c(C)nc(C)c(C(N)=O)c4O)cc3)c2nc1OC [Compound 85, 3-N-[4-[(6,7-Dimethoxy-1,5-naphthyridin-4-yl)oxy]phenyl]-4-hydroxy-2,6-dimethylpyridine-3,5-dicarboxamide] | > 300 | > 300
12 | COc1cc2nccc(Oc3ccc(NC(=O)c4cnc(C)c(C5=CCCCC5)c4O)cc3F)c2cc1OC [Compound 23, 5-(Cyclohexen-1-yl)-N-[4-(6,7-dimethoxyquinolin-4-yl)oxy-3-fluorophenyl]-4-hydroxy-6-methylpyridine-3-carboxamide] | ≤ 100 | ≤ 100
13 | CNC(=O)c1c(C)nc(C)c(C(=O)Nc2ccc(Oc3ccnc4cc(OC)c(OC)nc34)c(F)c2)c1O [Compound 97, 3-N-[4-[(6,7-Dimethoxy-1,5-naphthyridin-4-yl)oxy]-3-fluorophenyl]-4-hydroxy-5-N,2,6-trimethylpyridine-3,5-dicarboxamide] | > 300 | 100 to 300
14 | COc1cc2nccc(Oc3ccc(NC(=O)c4cn(CCF)c(C)c(C5CCCC5)c4=O)cc3F)c2nc1OC [Compound 13, 5-Cyclopentyl-N-[4-[(6,7-dimethoxy-1,5-naphthyridin-4-yl)oxy]-3-fluorophenyl]-1-(2-fluoroethyl)-6-methyl-4-oxopyridine-3-carboxamide] | ≤ 100 | ≤ 100
15 | COc1cc2nccc(Oc3ccc(NC(=O)c4c5n(c(C)c(C6=CCCCC6)c4=O)CCOC5)cc3)c2nc1OC [Compound 100, 7-(Cyclohexen-1-yl)-N-[4-[(6,7-dimethoxy-1,5-naphthyridin-4-yl)oxy]phenyl]-6-methyl-8-oxo-3,4-dihydro-1H-pyrido[2,1-c][1,4]oxazine-9-carboxamide] | ≤ 100 | > 300
16 | COc1cc2nccc(Oc3ccc(NC(=O)c4c(C)n(C)c(C)c(C(=O)O)c4=O)cc3F)c2nc1OC [Compound 92, 5-[[4-[(6,7-Dimethoxy-1,5-naphthyridin-4-yl)oxy]-3-fluorophenyl]carbamoyl]-1,2,6-trimethyl-4-oxopyridine-3-carboxylic acid] | > 300 | 100 to 300
17 | COc1cc2nccc(Oc3ccc(NC(=O)c4cn(CCF)c(C)c(C5=CCCC5)c4=O)cc3F)c2nc1OC [Compound 11, 5-(Cyclopenten-1-yl)-N-[4-[(6,7-dimethoxy-1,5-naphthyridin-4-yl)oxy]-3-fluorophenyl]-1-(2-fluoroethyl)-6-methyl-4-oxopyridine-3-carboxamide] | ≤ 100 | ≤ 100
